Measurements from PubChem BioAssay AID248 (DTP/NCI, 2004).
Values joined by “and” are separate entries in the source; they are usually repeats but may differ in a detail not shown here. Equal entries are not always repeated. Inconclusive results and toxic doses are left out. No stated cut-off is given here; in the data, active means T/C of 150% or more; inactive means T/C below 125%.

Test system: L1210 leukemia ip in BDF1 mice, survival T/C
Experiment: NCI In Vivo Anticancer Drug Screen. Data for tumor model L1210 Leukemia (intraperitoneal) in B6D2F1 (BDF1) mice
Settings: endpoint: mean survival time, higher = longer survival
How it was run: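 Ratio derived from survival: compound-dosed mice over vehicle-dosed mice, all bearing a transplantable tumor.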

[1] = dose: 100.0 mg/kg/injection, schedule: Q04DX003 (ip), vehicle: Klucel (hydroxypropylcellulose) (HPC)
[2] = dose: 200.0 mg/kg/injection, schedule: Q04DX003 (ip), vehicle: Klucel (hydroxypropylcellulose) (HPC)
[3] = dose: 400.0 mg/kg/injection, schedule: Q04DX003 (ip), vehicle: Klucel (hydroxypropylcellulose) (HPC)
[4] = dose: 100.0 mg/kg/injection, schedule: Q04DX003 (ip), vehicle: saline
[5] = dose: 200.0 mg/kg/injection, schedule: Q04DX003 (ip), vehicle: saline
[6] = dose: 400.0 mg/kg/injection, schedule: Q04DX003 (ip), vehicle: saline
[7] = dose: 100.0 mg/kg/injection, schedule: Q01DX001 (ip), vehicle: saline
[8] = dose: 200.0 mg/kg/injection, schedule: Q01DX001 (ip), vehicle: saline
[9] = dose: 100.0 mg/kg/injection, schedule: Q01DX001 (ip), vehicle: carboxymethylcellulose (CMC)
[10] = dose: 200.0 mg/kg/injection, schedule: Q01DX001 (ip), vehicle: carboxymethylcellulose (CMC)
[11] = dose: 400.0 mg/kg/injection, schedule: Q01DX001 (ip), vehicle: carboxymethylcellulose (CMC)
[12] = dose: 50.0 mg/kg/injection, schedule: Q01DX009 (ip), vehicle: Klucel (hydroxypropylcellulose) (HPC)
[13] = dose: 100.0 mg/kg/injection, schedule: Q01DX009 (ip), vehicle: Klucel (hydroxypropylcellulose) (HPC)
[14] = dose: 200.0 mg/kg/injection, schedule: Q01DX009 (ip), vehicle: Klucel (hydroxypropylcellulose) (HPC)
[15] = dose: 400.0 mg/kg/injection, schedule: Q01DX009 (ip), vehicle: Klucel (hydroxypropylcellulose) (HPC)
[16] = dose: 100.0 mg/kg/injection, schedule: Q04DX003 (ip), vehicle: saline with Tween-80
[17] = dose: 200.0 mg/kg/injection, schedule: Q04DX003 (ip), vehicle: saline with Tween-80

Measured: T/C

COc1ccc(C(=O)Nc2ccc([N+](=O)[O-])cc2O)cc1
inactive: [1] 103 % of control | [2] 104 % of control | [3] 97 % of control

CC1C(C)(C)P(=O)(NCCOP2(=O)C(C)(C)C(C)C2(C)C)C1(C)C (stereo unspecified)
inactive: [4] 100 % of control | [5] 92 % of control | [6] 96 % of control

NC(=O)N/N=C(/CCC(=O)O)C(=O)O
inactive: dose: 100.0 mg/kg/injection, schedule: Q01DX001 (ip), vehicle: acetone 98 % of control | dose: 100.0 mg/kg/injection, schedule: Q01DX009 (ip), vehicle: acetone 92 % of control | [4] 89 % of control | dose: 200.0 mg/kg/injection, schedule: Q01DX001 (ip), vehicle: acetone 103 % of control | dose: 200.0 mg/kg/injection, schedule: Q01DX009 (ip), vehicle: acetone 100 % of control | [5] 93 % of control and 87 % of control | dose: 400.0 mg/kg/injection, schedule: Q01DX001 (ip), vehicle: acetone 95 % of control | dose: 400.0 mg/kg/injection, schedule: Q01DX009 (ip), vehicle: acetone 94 % of control | [6] 91 % of control

CN(C)c1ccc(C=Nc2ccc(O)cc2)cc1
inactive: [7] 88 % of control | [8] 94 % of control | dose: 400.0 mg/kg/injection, schedule: Q01DX001 (ip), vehicle: saline 96 % of control

O=C(CC1(O)C(=O)Nc2ccccc21)CC1(O)C(=O)Nc2ccccc21 (stereo unspecified)
inactive: dose: 100.0 mg/kg/injection, schedule: Q01DX007 (ip), vehicle: Klucel (hydroxypropylcellulose) (HPC) 110 % of control | [1] 100 % of control | dose: 200.0 mg/kg/injection, schedule: Q01DX007 (ip), vehicle: Klucel (hydroxypropylcellulose) (HPC) 118 % of control | [2] 97 % of control | dose: 400.0 mg/kg/injection, schedule: Q01DX007 (ip), vehicle: Klucel (hydroxypropylcellulose) (HPC) 103 % of control | [3] 92 % of control

C=CCC1CCCCC1
inactive: [9] 104 % of control | [10] 105 % of control | [11] 104 % of control

CC1(C)N=C(N)N=C(N)N1c1ccc(CC(=O)Nc2cccc(S(=O)(=O)F)c2)cc1
inactive: dose: 6.25 mg/kg/injection, schedule: Q#A X018 (ip), vehicle: saline 105 % of control | dose: 12.5 mg/kg/injection, schedule: Q01DX009 (ip), vehicle: saline 103 % of control | dose: 12.5 mg/kg/injection, schedule: Q#A X018 (ip), vehicle: saline 111 % of control | dose: 25.0 mg/kg/injection, schedule: Q01DX009 (ip), vehicle: saline 111 % of control | dose: 50.0 mg/kg/injection, schedule: Q01DX009 (ip), vehicle: saline 117 % of control and 118 % of control | dose: 50.0 mg/kg/injection, schedule: Q#A X018 (ip), vehicle: saline 118 % of control | [7] 100 % of control | [8] 102 % of control

CCC(C)C(C(=O)OCCN(CC)CC)c1ccccc1 (stereo unspecified)
inactive: [12] 95 % of control | [13] 97 % of control | [1] 96 % of control | [14] 104 % of control | [2] 91 % of control

Cc1cc(O)c(CN(C)C)cc1O
inactive: dose: 75.0 mg/kg/injection, schedule: Q01DX001 (ip), vehicle: saline 103 % of control | dose: 150.0 mg/kg/injection, schedule: Q01DX001 (ip), vehicle: saline 104 % of control

Cc1ncc(CS(=O)(=O)O)c(N)n1
inactive: [13] 92 % of control | [1] 97 % of control | [14] 100 % of control | [2] 98 % of control | [15] 98 % of control | [3] 97 % of control

COC1C(CO)OC(n2cnc3c(N)ncnc32)C1O (stereo unspecified)
inactive: dose: 50.0 mg/kg/injection, schedule: Q01DX001 (ip), vehicle: carboxymethylcellulose (CMC) 102 % of control | [9] 110 % of control | [10] 116 % of control | [11] 98 % of control

c1cc[c]([Pb]([S]c2ncnc3c2nc[n]3[Pb]([c]2ccccc2)([c]2ccccc2)[c]2ccccc2)([c]2ccccc2)[c]2ccccc2)cc1.c1cc[c]([Pb]([S]c2ncnc3nc[nH]c23)([c]2ccccc2)[c]2ccccc2)cc1
inactive: dose: 5.0 mg/kg/injection, schedule: Q01DX001 (ip), vehicle: other 103 % of control | dose: 10.0 mg/kg/injection, schedule: Q01DX001 (ip), vehicle: other 121 % of control

CC1=CC(=O)CC(c2ccc(N(C)C)cc2)C1 (stereo unspecified)
inactive: dose: 25.6 mg/kg/injection, schedule: Q04DX002 (ip), vehicle: saline with Tween-80 101 % of control | dose: 64.0 mg/kg/injection, schedule: Q04DX002 (ip), vehicle: saline with Tween-80 97 % of control

NC(=S)N/N=C/c1ccc([N+](=O)[O-])s1 (tested in a mixture with another compound)
inactive: [9] 92 % of control | [10] 97 % of control | [11] 94 % of control

COC(=O)C(NC(C)=O)C(=O)OC
inactive: [13] 98 % of control | [1] 90 % of control | [14] 104 % of control | [2] 98 % of control | [15] 96 % of control | [3] 106 % of control

S=C(S)Nc1ccc(Cc2ccc(NC(=S)S)cc2)cc1
inactive: [16] 95 % of control | [17] 91 % of control | dose: 400.0 mg/kg/injection, schedule: Q04DX003 (ip), vehicle: saline with Tween-80 98 % of control

Cc1nc(N(C)C)nc(C)c1C#[N+][O-]
inactive: [9] 94 % of control

O=C(O)CSC(C(=O)O)c1ccccc1 (stereo unspecified)
inactive: dose: 50.0 mg/kg/injection, schedule: Q01DX009 (ip), vehicle: saline with Tween-80 93 % of control | dose: 100.0 mg/kg/injection, schedule: Q01DX009 (ip), vehicle: saline with Tween-80 92 % of control | [16] 94 % of control | dose: 200.0 mg/kg/injection, schedule: Q01DX009 (ip), vehicle: saline with Tween-80 93 % of control | [17] 97 % of control

[Cu+].[S-]c1ccsc1
inactive: dose: 10.0 mg/kg/injection, schedule: Q01DX001 (ip), vehicle: carboxymethylcellulose (CMC) 95 % of control | dose: 20.0 mg/kg/injection, schedule: Q01DX001 (ip), vehicle: carboxymethylcellulose (CMC) 93 % of control | dose: 40.0 mg/kg/injection, schedule: Q01DX001 (ip), vehicle: carboxymethylcellulose (CMC) 90 % of control | dose: 80.0 mg/kg/injection, schedule: Q01DX001 (ip), vehicle: carboxymethylcellulose (CMC) 106 % of control

CCOC(=O)c1ccc(NC(=S)N2CCOCC2)cc1
inactive: [13] 93 % of control | [14] 101 % of control | [15] 93 % of control

O=C(Nc1cccc(C2=NCCN2)c1)c1cccc(C(=O)Nc2cccc(C3=NCCN3)c2)c1
inactive: dose: 15.0 mg/kg/injection, schedule: Q01DX Z (ip), vehicle: carboxymethylcellulose (CMC) 103 % of control | dose: 31.0 mg/kg/injection, schedule: Q01DX Z (ip), vehicle: carboxymethylcellulose (CMC) 92 % of control | dose: 62.0 mg/kg/injection, schedule: Q01DX Z (ip), vehicle: carboxymethylcellulose (CMC) 92 % of control

Clc1nc2nc(C(Cl)(Cl)Cl)[nH]c2nc1Cl
inactive: dose: 6.25 mg/kg/injection, schedule: Q01DX009 (ip), vehicle: Klucel (hydroxypropylcellulose) (HPC) 103 % of control | dose: 12.5 mg/kg/injection, schedule: Q01DX009 (ip), vehicle: Klucel (hydroxypropylcellulose) (HPC) 102 % of control | dose: 25.0 mg/kg/injection, schedule: Q01DX009 (ip), vehicle: Klucel (hydroxypropylcellulose) (HPC) 115 % of control | [12] 105 % of control | [1] 97 % of control | [2] 100 % of control

O=C(O)/C=C(/Oc1ccc(Cl)cc1)C(=O)O
inactive: dose: 100.0 mg/kg/injection, schedule: Q04DX002 (ip), vehicle: other 93 % of control | dose: 200.0 mg/kg/injection, schedule: Q04DX002 (ip), vehicle: other 103 % of control | dose: 400.0 mg/kg/injection, schedule: Q04DX002 (ip), vehicle: other 100 % of control

Cc1cnc2nc(N)[nH]c(=O)c2c1
inactive: dose: 100.0 mg/kg/injection, schedule: Q04DX003 (ip), vehicle: saline sonified 98 % of control | dose: 200.0 mg/kg/injection, schedule: Q04DX003 (ip), vehicle: saline sonified 95 % of control | dose: 400.0 mg/kg/injection, schedule: Q04DX003 (ip), vehicle: saline sonified 95 % of control
